The values below come from patent publication US20250122191A1, “COMPOUNDS AS BCL-2 INHIBITORS” (Fochon Biosciences, Ltd, priority 2021, published 2025).

For one test, the system named is Toledo cells. Description: Cell proliferation assay (MTS), Toledo cells. The test is classed as cell-based. The conditions noted are these: Homo sapiens, 72 h. On the procedure: MTS testing kit was purchased from Promega (Madison, WI, USA). The RPMI-1640, Fetal bovine serum and Penicillin-Streptomycin were purchased from BI (Biological Industries, Beit Haemek, Israel). Dimethyl sulfoxide (DMSO) was purchased from Sigma (St. Louis., MO, USA). Toledo (ATCC catalog #: CRL-2631) cells were cultured in RPMI-1640 supplemented with Penicillin-Streptomycin and 10% FBS.
To investigate whether a compound is able to inhibit the activity of BCL-2 in cells, a mechanism-based assay using Toledo lines was developed. In this assay, the inhibition of BCL-2 was reflected by the inhibition of cell proliferation of Toledo cells. Cells were plated into 96-well plates at the optimized cell density of 30000 cells/well. Plates were incubated at 37° C., with 5% CO2 for 4 h. Compounds were serially diluted and added to the plates with the final concentrations of 10000, 3333.3, 1111.1, 370.4, 123.5, 41.2, 13.7, 4.6 and 1.5 nM. Plates were incubated at 37° C., with 5% CO2 for 72 h. 20 μl MTS was added into each well and the plates were incubated at 37° C., with 5% CO2 for exactly 2 h. The absorbance was measured by a microplate reader at 490 nm. IC50 was calculated using GraphPad Prism 5.0 software.

Another test has as its system RS4;11-BCL-2 G101V cells. Description: Cell proliferation assay (MTS), RS4;11-BCL-2 G101V engineered cells. The test is classed as cell-based. The conditions noted are these: Homo sapiens, 120 h, read-out: RS4, 11 BCL2-G101V IC50. The text has this:
MTS testing kit was purchased from Promega (Madison, WI, USA). The RPMI-1640, Fetal bovine serum and Penicillin-Streptomycin were purchased from BI (Biological Industries, Beit Haemek, Israel). Puromycin was purchased from Beyotime (shanghai, China). Dimethyl sulfoxide (DMSO) was purchased from Sigma (St. Louis., MO, USA). RS4;11-BCL-2 G101V (Cobioer Lot. #: CBD2021063013P4), RS4;11-BCL-2 D103E (Cobioer Lot. #: CBD2021063013P4), RS4;11-BCL-2 D103Y (Cobioer Lot. #: CBD2022012101P4) and RS4;11-BCL-2 F104L (Cobioer Lot. #: CBD2021063014P4) cells were cultured in RPMI1640 supplemented with 1 ug/mL puromycin, 100 U/mL Penicillin-Streptomycin and 10% FBS.
To investigate whether a compound is able to inhibit the activity of BCL-2 mutation in cells, a mechanism-based assay using engineered cell lines stably overexpressing BCL-2 mutation (RS4;11-BCL-2 G101V, RS4;11-BCL-2 D103E, RS4;11-BCL-2 D103Y, and RS4;11-BCL-2 F104L) was developed. In this assay, the inhibition of BCL-2 mutation was reflected by the inhibition of cell proliferation of engineered RS4;11 cells. Cells were plated into 96-well plates at optimized cell density (RS4;11-BCL-2 G101V: 5000 cells/well; RS4;11-BCL-2 D103E: 7500 cells/well; RS4;11-BCL-2 D103Y: 7500 cells/well; RS4;11-BCL-2 F104L: 5000 cells/well). Plates were incubated at 37° C., with 5% CO2 for 4 h (RS4;11-BCL-2 G101V, RS4;11-BCL-2 F104L) and 24 h (RS4;11-BCL-2 D103E, RS4;11-BCL-2 D103Y), respectively. Compounds were serially diluted and added to the plates with the final concentrations of 10000, 3333.3, 1111.1, 370.4, 123.5, 41.2, 13.7, 4.6 and 1.5 nM. Plates were incubated at 37° C., with 5% CO2 for 120 h (RS4; 11-BCL-2 G101V, RS4; 11-BCL-2 F104L) and 72 h (RS4;11-BCL-2 D103E, RS4;11-BCL-2 D103Y), respectively. 20 μl MTS was added into each well and the plates were incubated at 37° C., with 5% CO2 exactly for 2 h. The absorbance was measured by a microplate reader at 490 nm. IC50 values were calculated using GraphPad Prism 8.0 software.

Usually IC50 stands for the point on the concentration scale where inhibition reaches its midpoint. `CC(C)c1ccccc1[C@@H]1CN(Cc2ccc(F)c(F)c2)CCN1C1CC2(CCN(c3ccc(C(=O)NS(=O)(=O)c4cnc(NC[C@H]5CC[C@](C)(O)CC5)c([N+](=O)[O-])c4)c(Oc4cnc5[nH]cc(F)c5c4)c3)CC2)C1` [Example 72, 4-(2-((R)-4-(3,4-difluorobenzyl)-2-(2-isopropylphenyl)piperazin-1-yl)-7-azaspiro[3.5]nonan-7-yl)-2-((3-fluoro-1H-pyrrolo[2,3-b]pyridin-5-yl)oxy)-N-((6-((((1r,4r)-4-hydroxy-4-methylcyclohexyl)methyl)amino)-5-nitropyridin-3-yl)sulfonyl)benzamide]: the IC50 in the test with Toledo cells and in the test with RS4;11-BCL-2 G101V cells was 1 nM in each case.
For the molecule `COc1nc2[nH]cc(F)c2cc1Oc1cc(N2CCC3(CC2)CC(N2CCN(Cc4cc(F)c(OC)c(F)c4)C[C@H]2c2ccccc2C(C)C)C3)ccc1C(=O)NS(=O)(=O)c1cnc(NC[C@H]2CC[C@](C)(O)CC2)c([N+](=O)[O-])c1` [Example 107, 4-(2-((R)-4-(3,5-difluoro-4-methoxybenzyl)-2-(2-isopropylphenyl)piperazin-1-yl)-7-azaspiro[3.5]nonan-7-yl)-2-((3-fluoro-6-methoxy-1H-pyrrolo[2,3-b]pyridin-5-yl)oxy)-N-((6-((((1r,4r)-4-hydroxy-4-methylcyclohexyl)methyl)amino)-5-nitropyridin-3-yl)sulfonyl)benzamide], the IC50 in the test with Toledo cells and with RS4;11-BCL-2 G101V cells was 1 nM throughout.
As to `CCOc1nc2[nH]cc(F)c2cc1Oc1cc(N2CCC3(CC2)CC(N2CCN(CCOC)C[C@H]2c2ccccc2C(C)C)C3)ccc1C(=O)NS(=O)(=O)c1cnc(NC[C@H]2CC[C@](C)(O)CC2)c([N+](=O)[O-])c1` [Example 130, 2-((6-ethoxy-3-fluoro-1H-pyrrolo[2,3-b]pyridin-5-yl)oxy)-N-((6-((((1r,4r)-4-hydroxy-4-methylcyclohexyl)methyl)amino)-5-nitropyridin-3-yl)sulfonyl)-4-(2-((R)-2-(2-isopropylphenyl)-4-(2-methoxyethyl)piperazin-1-yl)-7-azaspiro[3.5]nonan-7-yl)benzamide], the IC50 in the test on Toledo cells and in the test on RS4;11-BCL-2 G101V cells was 1 nM in each case.
Take `CCOc1nc2[nH]cc(F)c2cc1Oc1cc(N2CCC3(CC2)CC(N2CCN(C4COC4)C[C@H]2c2ccccc2C(C)C)C3)ccc1C(=O)NS(=O)(=O)c1cnc(NC[C@H]2CC[C@](C)(O)CC2)c([N+](=O)[O-])c1` [Example 132, 2-((6-ethoxy-3-fluoro-1H-pyrrolo[2,3-b]pyridin-5-yl)oxy)-N-((6-((((1r,4r)-4-hydroxy-4-methylcyclohexyl)methyl)amino)-5-nitropyridin-3-yl)sulfonyl)-4-(2-((R)-2-(2-isopropylphenyl)-4-(oxetan-3-yl)piperazin-1-yl)-7-azaspiro[3.5]nonan-7-yl)benzamide]: the IC50 in the test with Toledo cells and in the test on RS4;11-BCL-2 G101V cells was 1 nM in each case.
As to `CCOc1nc2[nH]cc(F)c2cc1Oc1cc(N2CCC3(CC2)CC(N2CCN(Cc4cnn(C5CC5)c4)C[C@H]2c2ccccc2C(C)C)C3)ccc1C(=O)NS(=O)(=O)c1cnc(NC[C@H]2CC[C@](C)(O)CC2)c([N+](=O)[O-])c1` [Example 134, 4-(2-((R)-4-((1-cyclopropyl-1H-pyrazol-4-yl)methyl)-2-(2-isopropylphenyl)piperazin-1-yl)-7-azaspiro[3.5]nonan-7-yl)-2-((6-ethoxy-3-fluoro-1H-pyrrolo[2,3-b]pyridin-5-yl)oxy)-N-((6-((((1r,4r)-4-hydroxy-4-methylcyclohexyl)methyl)amino)-5-nitropyridin-3-yl)sulfonyl)benzamide], the IC50 with Toledo cells and in the test with RS4;11-BCL-2 G101V cells was 1 nM in each case.
In the case of `CCOc1nc2[nH]cc(F)c2cc1Oc1cc(N2CCC3(CC2)CC(N2CCN(C)C[C@H]2c2ccccc2C(C)C)C3)ccc1C(=O)NS(=O)(=O)c1cnc(NC[C@H]2CC[C@](C)(O)CC2)c([N+](=O)[O-])c1` [Example 138, 2-((6-ethoxy-3-fluoro-1H-pyrrolo[2,3-b]pyridin-5-yl)oxy)-N-((6-((((1r,4r)-4-hydroxy-4-methylcyclohexyl)methyl)amino)-5-nitropyridin-3-yl)sulfonyl)-4-(2-((R)-2-(2-isopropylphenyl)-4-methylpiperazin-1-yl)-7-azaspiro[3.5]nonan-7-yl)benzamide], the IC50 in the test on Toledo cells and in the test with RS4;11-BCL-2 G101V cells was 1 nM each time.
Regarding `COc1ccc(CN2CCN(C3CC4(CCN(c5ccc(C(=O)NS(=O)(=O)c6cnc(NC[C@H]7CC[C@](C)(O)CC7)c([N+](=O)[O-])c6)c(Oc6cnc7[nH]cc(F)c7c6)c5)CC4)C3)[C@H](c3ccccc3C(C)C)C2)cc1F` [Example 201, 2-((3-fluoro-1H-pyrrolo[2,3-b]pyridin-5-yl)oxy)-4-(2-((R)-4-(3-fluoro-4-methoxybenzyl)-2-(2-isopropylphenyl)piperazin-1-yl)-7-azaspiro [3.5]nonan-7-yl)-N-((6-((((1r,4r)-4-hydroxy-4-methylcyclohexyl)methyl)amino)-5-nitropyridin-3-yl)sulfonyl)benzamide], the IC50 in the test on Toledo cells and with RS4;11-BCL-2 G101V cells was 1 nM in each case.
`CCOc1nc2[nH]cc(F)c2cc1Oc1cc(N2CCC3(CC2)CC(N2CCN(Cc4ccc(Cl)cc4)C[C@H]2c2ccccc2C(C)C)C3)ccc1C(=O)NS(=O)(=O)c1cnc(NC[C@H]2CC[C@](C)(O)CC2)c([N+](=O)[O-])c1` [Example 231, 4-(2-((R)-4-(4-chlorobenzyl)-2-(2-isopropylphenyl)piperazin-1-yl)-7-azaspiro[3.5]nonan-7-yl)-2-((6-ethoxy-3-fluoro-1H-pyrrolo[2,3-b]pyridin-5-yl)oxy)-N-((6-((((1r,4r)-4-hydroxy-4-methylcyclohexyl)methyl)amino)-5-nitropyridin-3-yl)sulfonyl)benzamide]: the IC50 in the test on Toledo cells and in the test on RS4;11-BCL-2 G101V cells was 1 nM each time.
For `CCOc1nc2[nH]cc(F)c2cc1Oc1cc(N2CCC3(CC2)CC(N2CCN(Cc4ccc(F)cc4)C[C@H]2c2ccccc2C(C)C)C3)ccc1C(=O)NS(=O)(=O)c1cnc(NC[C@H]2CC[C@](C)(O)CC2)c([N+](=O)[O-])c1` [Example 234, 2-((6-ethoxy-3-fluoro-1H-pyrrolo[2,3-b]pyridin-5-yl)oxy)-4-(2-((R)-4-(4-fluorobenzyl)-2-(2-isopropylphenyl)piperazin-1-yl)-7-azaspiro[3.5]nonan-7-yl)-N-((6-((((1r,4r)-4-hydroxy-4-methylcyclohexyl)methyl)amino)-5-nitropyridin-3-yl)sulfonyl)benzamide], the IC50 in the test with Toledo cells and in the test on RS4;11-BCL-2 G101V cells was 1 nM throughout.
Regarding `CCOc1nc2[nH]cc(F)c2cc1Oc1cc(N2CCC3(CC2)CC(N2CCN(Cc4ccc(C#N)cc4)C[C@H]2c2ccccc2C(C)C)C3)ccc1C(=O)NS(=O)(=O)c1cnc(NC[C@H]2CC[C@](C)(O)CC2)c([N+](=O)[O-])c1` [Example 235, 4-(2-((R)-4-(4-cyanobenzyl)-2-(2-isopropylphenyl)piperazin-1-yl)-7-azaspiro[3.5]nonan-7-yl)-2-((6-ethoxy-3-fluoro-1H-pyrrolo [2,3-b]pyridin-5-yl)oxy)-N-((6-((((1r,4r)-4-hydroxy-4-methylcyclohexyl)methyl)amino)-5-nitropyridin-3-yl)sulfonyl)benzamide], the IC50 with Toledo cells and in the test with RS4;11-BCL-2 G101V cells was 1 nM in each case.
